Here are results for 27 compounds from US20030162777A1, “Novel N-acylated heterocycles” (Recordati S.A., priority 2001, published 2003).

The experiment deals with T1, human 5HT1A-serotonergic receptor (Homo sapiens, UniProt P08908).
T1 construct: expressed in transfected cells; host or cells: HeLa (human cell line), stably transfected; cell membranes used
T1 sequence (P08908 1-422): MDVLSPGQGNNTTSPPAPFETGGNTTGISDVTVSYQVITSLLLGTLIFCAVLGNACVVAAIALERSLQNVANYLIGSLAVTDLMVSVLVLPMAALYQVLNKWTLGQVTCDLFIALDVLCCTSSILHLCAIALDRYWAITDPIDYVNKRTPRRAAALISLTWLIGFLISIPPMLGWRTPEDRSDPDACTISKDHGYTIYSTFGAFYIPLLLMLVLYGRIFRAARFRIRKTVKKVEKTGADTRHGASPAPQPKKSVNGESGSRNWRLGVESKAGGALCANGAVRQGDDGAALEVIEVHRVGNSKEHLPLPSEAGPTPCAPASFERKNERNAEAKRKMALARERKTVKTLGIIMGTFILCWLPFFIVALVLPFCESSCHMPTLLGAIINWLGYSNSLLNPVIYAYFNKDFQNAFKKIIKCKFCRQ
As to the kind of experiment: Radioligand binding to recombinant 5-HT1A receptors. As to conditions: [3H]8-OH-DPAT 1 nM, membranes of HeLa cells with human 5-HT1A receptor; Ki from IC50 by Cheng & Prusoff; read-out: Binding affinity for 5HT1A receptors, Ki. Here is the method: Genomic clone G-21 coding for the human 5HT1A-serotonergic receptor was stably transfected in a human cell line (HeLa). HeLa cells were grown as monolayers in Dulbecco's modified Eagle medium (DMEM), containing 10% foetal bovine serum, gentamicin ([…]) and 5% carbon dioxide, at 37° C. The cells were detached from the growth flask at 95% confluence by a cell scraper and were lysed in cold 5 mM Tris and 5 mM EDTA buffer (pH 7.4). The homogenates were centrifuged at 40000×g×20 minutes and the pellets were resuspended in a small volume of cold 5 mM Tris and 5 mM EDTA buffer (pH 7.4) and immediately frozen and stored at −70° C. until use. On the day of experiment, the cell membranes were resuspended in incubation buffer: 50 mM Tris HCl (pH 7.4), 2.5 mM MgCl2, […] (Fargin et al., Nature 335, 358-360, 1988). The membranes were incubated in a final volume of 1 ml for 30 minutes at 30° C. with 1 nM [^3H]8-OH-DPAT, in the absence or presence of the test compounds. Non-specific binding was determined in the presence of 10 μM 5-HT. Incubation was stopped by addition of cold Tris-HC 1 buffer and rapid filtration through a 0.2%-polyethyleneimine-pretreated Whatman-GF/B or Schleicher-&-Schuell-GF52 filter.
The affinity of the tested compounds was evaluated as inhibition of specific binding of the radioligand to 5-HT1A receptors (IC50) by using the non-linear curve-fitting program Allfit (De Lean et al., Am. J. Physiol. 235, E97-E102 (1978). The IC50 value was converted to an affinity constant (Ki) by the equation of Cheng & Prusoff (Cheng Y. C., Prusoff W. H., Biochem. Pharmacol. 22, 3099-3108 (1973)).

For orientation: Ki means the equilibrium dissociation constant of an inhibitor or competing ligand from its target. `O=C(C1CCCCC1)N1c2ccccc2CCC1CN1CCN(Cc2ccccc2Br)CC1` (stereo not drawn) [Example 35A29, 1-(2-Bromobenzyl)-4-(1-cyclohexanecarbonyl-1,2,3,4-tetrahydroquinoline-2-ylmethyl)piperazine]: the inhibition constant Ki is 31.1 nM. With `O=C(C1CCCCC1)N1c2ccccc2CCC1CN1CCN(c2ccc(Br)c3[nH]ccc23)CC1` (stereo not drawn) [Example 35A32, 1-(7-Bromo-4-indolyl)-4-(1-cyclohexanecarbonyl-1,2,3,4-tetrahydroquinoline-2-ylmethyl)piperazine], the Ki was 20 nM. In the case of `O=C(C1CCCCC1)N1c2ccccc2CCC1CN1CCN(Cc2ccccc2Cl)CC1` (stereo not drawn) [Example 35A34, 1-(2-Chlorobenzyl)-4-(1-cyclohexanecarbonyl-1,2,3,4-tetrahydroquinoline-2-ylmethyl)piperazine] it was 12.3 nM; in that of `COc1cccc(N2CCN(CC3CCc4ccccc4N3C(=O)C3CCCCC3)CC2)n1` (stereo not drawn) [Example 35A35, 1-(1-Cyclohexanecarbonyl-1,2,3,4-tetrahydroquinoline-2-ylmethyl)-4-(6-methoxy-2-pyridinyl)piperazine], 6.2 nM.

`O=C(C1CCCCC1)N1c2ccccc2CCC1CN1CCN(Cc2cc(Cl)ccc2Cl)CC1` (stereo not drawn) [Example 35A36, 1-(1-Cyclohexanecarbonyl-1,2,3,4-tetrahydroquinoline-2-ylmethyl)-4-(2,5-dichlorobenzyl)piperazine]: the Ki was found to be 2.4 nM. The figure for `O=C(N1CCCCC1)N1c2ccccc2CCC1CN1CCN(c2cccc3[nH]ccc23)CC1` (stereo not drawn) [Example 36, 1-(4-Indolyl)-4-(1-piperidinocarbonyl-1,2,3,4-tetrahydroquinoline-2-ylmethyl)piperazine] is 15.6 nM; for `O=C(C1CCCCC1)N1c2c(F)cccc2CCC1CN1CCN(c2cccc3[nH]ccc23)CC1` (stereo not drawn) [Example 38, 1-(1-Cyclohexanecarbonyl-8-fluoro-1,2,3,4-tetrahydroquinoline-2-ylmethyl)-4-(4-indolyl)piperazine] it is 17.3 nM. On to `Cn1ccc2c(N3CCN(C[C@H]4CCc5ccccc5N4C(=O)C4CCCCC4)CC3)cccc21` [Example 43, (R)-1-(1-Cyclohexanecarbonyl-1,2,3,4-tetrahydroquinoline-2-ylmethyl)-4-(1-methyl-4-indolyl)piperazine], for which the inhibitory constant (Ki) worked out at 5 nM. In the case of `O=C(C1CCC(O)CC1)N1c2ccccc2CCC1CN1CCN(c2cccc3[nH]ccc23)CC1` (stereo not drawn) [Example 44, (Z)-1-[1-(4-Hydroxycyclohexanecarbonyl)-1,2,3,4-tetrahydroquinoline-2-ylmethyl]-4-(4-indolyl)piperazine] it was 30 nM; in that of `O=C(C1CCCCC1)N1c2cc(F)ccc2CCC1CN1CCN(c2cccc3[nH]ccc23)CC1` (stereo not drawn) [Example 46, 1-(1-Cyclohexanecarbonyl-7-fluoro-1,2,3,4-tetrahydroquinoline-2-ylmethyl)-4-(4-indolyl)piperazine], 11.2 nM; in that of `O=C(C1CCCCC1)N1c2ccccc2CC1CN1CCN(c2cccc3[nH]ccc23)CC1` (stereo not drawn) [Example 48, 1-(1-Cyclohexanecarbonyl-2,3-dihydroindole-2-ylmethyl)-4-(4-indolyl)piperazine], 17.7 nM. For `O=C(C1CCCCC1)N1c2ccc(O)cc2CCC1CN1CCN(c2cccc3[nH]ccc23)CC1` (stereo not drawn) [Example 50, 1-(1-Cyclohexanecarbonyl-6-hydroxy-1,2,3,4-tetrahydroquinoline-2-ylmethyl)-4-(4-indolyl)piperazine], the Ki came to 41 nM.

`COc1cc(F)ccc1N1CCN(CC2CCc3cc(C)ccc3N2C(=O)C2CCCCC2)CC1` (stereo not drawn) [Example 53, 1-(1-Cyclohexanecarbonyl-6-methyl-1,2,3,4-tetrahydroquinoline-2-ylmethyl)-4-(4-fluoro-2-methoxyphenyl)piperazine]: the Ki worked out at 24.2 nM. On to `N#CNCCC(=O)N1c2ccccc2CCC1CN1CCN(c2cccc3[nH]ccc23)CC1` (stereo not drawn) [Example 54, 1-[1-(3-Cyanominopropionyl)-1,2,3,4-tetrahydroquinoline-2-ylmethyl]-4-(4-indolyl)piperazine], for which the Ki is 51 nM. The figure for `COc1cc(F)ccc1N1CCN(CC2CCc3c(Cl)cccc3N2C(=O)C2CCCCC2)CC1` (stereo not drawn) [Example 55, 1-(5-Chloro-1-cyclohexanecarbonyl-1,2,3,4-tetrahydroquinoline-2-ylmethyl)-4-(4-fluoro-2-methoxyphenyl)piperazine] is 2.4 nM. For the compound `COc1ccc(C(=O)N2c3cccc(Cl)c3CCC2CN2CCN(c3ccc(F)cc3OC)CC2)cc1` (stereo not drawn) [Example 56, 1-[5-Chloro-1-(4-methoxybenzoyl)-1,2,3,4-tetrahydroquinoline-2-ylmethyl]-4-(4-fluoro-2-methoxyphenyl)piperazine], the Ki turned out to be 3.6 nM. Turning to `COc1cc(F)ccc1N1CCN(CC2CCc3ccc(Cl)cc3N2C(=O)C2CCCCC2)CC1` (stereo not drawn) [Example 57, 1-(7-Chloro-1-cyclohexanecarbonyl-1,2,3,4-tetrahydroquinoline-2-ylmethyl)-4-(4-fluoro-2-methoxyphenyl)piperazine], the Ki was 2.3 nM. The figure for `O=C(C1CCCCC1)N1c2ccccc2CCC1CN1CCN(c2cc(Cl)ccc2F)CC1` (stereo not drawn) [Example 60A1, 1-(5-Chloro-2-fluorophenyl)-4-(1-cyclohexanecarbonyl-1,2,3,4-tetrahydroquinoline-2-ylmethyl)piperazine] is 8.1 nM; for `O=C(C1CCCCC1)N1c2ccccc2CCC1CN1CCN(c2cccc3nonc23)CC1` (stereo not drawn) [Example 60A8, 1-[4-(2,1,3-Benzoxadiazolyl)]-4-(1-cyclohexanecarbonyl-1,2,3,4-tetrahydroquinoline-2-ylmethyl)piperazine] it is 12.2 nM. In the case of `COc1ccc(C(F)(F)F)cc1N1CCN(CC2CCc3ccccc3N2C(=O)C2CCCCC2)CC1` (stereo not drawn) [Example 60A9, 1-(1-Cyclohexanecarbonyl-1,2,3,4-tetrahydroquinoline-2-ylmethyl)-4-(2-methoxy-5-trifluoromethylphenyl)piperazine] it was 6.5 nM; in that of `O=C(C1CCCCC1)N1c2ccccc2CCC1CN1CCN(C2CCCc3ccccc32)CC1` (stereo not drawn) [Example 60A10, 1-(1-Cyclohexanecarbonyl-1,2,3,4-tetrahydroquinoline-2-ylmethyl)-4-[1-(1,2,3,4-tetrahydronaphthyl)]piperazine], 31.6 nM; in that of `O=C(C1CCCCC1)N1c2ccccc2CCC1CN1CCN(c2cc(Cl)cc3c2OCCO3)CC1` (stereo not drawn) [Example 60A11, 1-(7-Chloro-2,3-dihydro-1,4-benzodioxin-5-yl)-4-(1-cyclohexanecarbonyl-1,2,3,4-tetrahydroquinoline-2-ylmethyl)piperazine], 10.6 nM.

With `COc1cc(Cl)ccc1N1CCN(CC2CCc3ccccc3N2C(=O)C2CCCCC2)CC1` (stereo not drawn) [Example 62A2, 1-(4-Chloro-2-methoxyphenyl)-4-(1-cyclohexanecarbonyl-1,2,3,4-tetrahydroquinoline-2-ylmethyl)piperazine], the Ki is 15.6 nM. With `CCOc1cc(Cl)ccc1N1CCN(CC2CCc3ccccc3N2C(=O)C2CCCCC2)CC1` (stereo not drawn) [Example 62A3, 1-(4-Chloro-2-ethoxyphenyl)-4-(1-cyclohexanecarbonyl-1,2,3,4-tetrahydroquinoline-2-ylmethyl)piperazine], the Ki turned out to be 5.7 nM. In the case of `Cc1ccc(N2CCN(CC3CCc4ccccc4N3C(=O)C3CCCCC3)CC2)c2cc[nH]c12` (stereo not drawn) [Example 62A5, 1-(1-Cyclohexanecarbonyl-1,2,3,4-tetrahydroquinoline-2-ylmethyl)-4-(7-methyl-4-indolyl)piperazine] it was 31.2 nM; in that of `CCn1ccc2c(N3CCN(CC4CCc5ccccc5N4C(=O)C4CCCCC4)CC3)cccc21` (stereo not drawn) [Example 62A, 1-(1-Cyclohexanecarbonyl-1,2,3,4-tetrahydroquinoline-2-ylmethyl)-4-(1-ethyl-4-indolyl)piperazine], 43.4 nM; in that of `COc1cc(F)ccc1N1CCN(CC2CCc3cc(-c4ccc(C(C)=O)s4)ccc3N2C(=O)C2CCCCC2)CC1` (stereo not drawn) [Example 63, 1-[6-(5-Acetyl-2-thienyl)-1-cyclohexanecarbonyl-1,2,3,4-tetrahydroquinoline-2-ylmethyl)-4-(4-fluoro-2-methoxyphenyl)piperazine], 42.9 nM.
